| melting point | SMILES |
| --- | --- |
| 92 to 95 °C | NC(c1ccnc2cc(Cl)ccc12)C1CCCC(CNc2ccnc3cc(Cl)ccc23)C1 (stereo not drawn) |
| 126 to 128 °C | CCOC(=O)C(=NOCCCl)c1csc(N)n1 |
| 208 °C | COC(=O)C1=C(C)Nc2nc(N)nc(N)c2C1c1ccccc1F (stereo not drawn) |
| 107 to 108 °C | COc1ccc(C2CN(c3cc(C)c4c(c3C)CC(C)(C)O4)CCO2)cc1 (stereo not drawn) |
| 141 to 143 °C | O=C(NC(CO)CO)c1ccccc1-c1ccc(C(F)(F)F)cc1 |
| 153 to 155 °C | O=C(O)c1ccccc1C(=O)Nc1ccc(C(=O)N2CCCC(O)c3cc(Cl)ccc32)cn1 (stereo not drawn) |
| 170 °C | Cc1nc2n(c(=O)c1CCN1CCN(c3noc4c(C)cccc34)CC1)CCCS2 |
| 178 °C | Nc1cccc(C(=O)N2CC3CC(CN(Cc4ccccc4)C3)C2)c1 |
| 84 to 86 °C | Cc1ncoc1C(=O)c1ccccc1 |
| 164 to 165 °C | C=CCN(CC=C)c1nc(NC(C)=O)n2oc(=O)nc2n1 |
| 170 to 172 °C | Cn1cccc1C(=O)C(C#N)C(=O)Nc1ccccc1 (stereo not drawn) |
| 90 to 92 °C | CCCCCC(=O)NS(=O)(=O)CCc1cc(OCCCC)nn1Cc1ccc(Cl)cc1Cl |
| 125 to 133 °C | O=C(O)Cc1cc(Cl)cc(Cl)c1Cl |
| > 250 °C | O=C1CCCC2=C1C(c1ccncc1)C1=C(CCS1)N2 (stereo not drawn) |
| 111 to 118 °C | Cc1c(Cl)cc(C#N)n1CCC(C)NC(=O)C(C#N)C(C)C(C)(C)C (stereo not drawn) |
| 77 to 78 °C | C[C@@H]1Cc2ccccc2O[C@H]1c1ccccc1 (relative stereo) |
| 198 to 200 °C | O=c1ccn(CCO)c(C(O)c2ccccc2)c1O (stereo not drawn) |
| 191 to 193 °C | CCCc1ccccc1OCCCOc1ccc2c(=O)cc(-c3nnn[nH]3)oc2c1 |
| 66 °C | COC(=O)C1=CC(=O)CCC1c1ccccc1 (racemic) |
| 105 to 107 °C | Cc1ccccc1C(=O)Nc1ccc(-n2nc(C3CC3)cc2C2CC2)c(F)c1 |
| 149 to 151 °C | COC(=O)c1ccc(Cc2cn(C)c3ccc(CC(C)C(=O)O)cc23)c(OC)c1 (stereo not drawn) |
| 168 to 170 °C | CC(C)c1ccc2c(c1)CCC1C(C)(C(=O)O)CCCC21C (stereo not drawn) |
| 136 °C | CCOC(=O)c1cc(-c2ccc(OC)cc2)nn(Cc2ccc(Cl)cc2Cl)c1=O |
| 215 to 217 °C | O=c1cc2c(nn1-c1ccc(Cl)cc1)-c1cc(Cl)ccc1SCC2 |

| melting point | SMILES |
| --- | --- |
| 95 to 96 °C | CN(CCOc1ccc([N+](=O)[O-])cc1F)c1ccccn1 |
| 179 °C | CSc1cncc(O)c1 |
| 118 to 120 °C | O=C(c1ccc(F)cc1)N1CCC[C@H](c2nc(-c3cscn3)no2)C1 |
| 142 to 146 °C | CC(C)NC(=O)Nc1ccnc(Cl)c1 |
| 81 to 83 °C | NC/C=C/COc1ccc(-n2ccnc2)cc1 |
| 222 °C | C[C@H]1CCC[C@@](O)(CNC(=O)c2c(Cl)ccc3nc(N4CC[C@H](O)C4)ccc23)C1 |
| 141 to 143 °C | Nc1cc(-c2ccc(Cl)cc2)on1 |
| 88 °C | COc1ccc(CCNCC(O)c2ccccc2OC)cc1OC (stereo not drawn) |
| 184 to 185 °C | CC(C)n1nc(OCC(=O)c2ccc(F)cc2)c(-c2ccc(F)cc2)c1-c1ccc(S(C)(=O)=O)cc1 |
| 238 to 239 °C | O=c1[nH]cnc2cc(Cl)sc12 |
| 203 to 206 °C | O=C1Cc2cc(NCc3ccccc3)ccc2N1 |
| 185 to 186 °C | O=S(=O)(c1cccs1)N(c1cccc2cc(C3=NCC(CN4CCOCC4)S3)[nH]c12)C(F)F (stereo not drawn) |
| 150 to 153 °C | COC(COC(=O)C1=C(C)NC2=C(C(=O)CNC2)C1c1cccc(Cl)c1Cl)c1ccccc1 (stereo not drawn) |
| 115 to 117 °C | CSc1ccc(C[C@H](CO)NC(=O)OCc2ccccc2)cc1 |
| 189 °C | COc1ccc(-c2cncc(OC3SCC(O)C(O)C3O)c2)cn1 (stereo not drawn) |
| 59 to 61 °C | CCCCS(=O)(=O)Oc1c(C(=O)OC(C)C)sc(C(=O)OC(C)C)c1C |
| 265 to 267 °C | COc1ccc(C=CC(=O)N2CCN(c3nc(N)c4cc(OC)c(OC)cc4n3)CC2)cc1 |
| 138 to 139 °C | N#CCc1cccc2c1CCN=C2c1ccc([N+](=O)[O-])cc1 |
| 182 to 183 °C | COCCNC(=O)c1ccc(CN2C(=O)C3(COc4cc5c(cc43)CCO5)c3ccccc32)cc1 (stereo not drawn) |
| 166 to 168 °C | O=C(O)C(=O)CC(=O)c1cccn1Cc1cc(F)cc(F)c1 |
| 78.8 to 79.5 °C | COC(=O)[C@H](Cc1ccc(OS(=O)(=O)c2ccc(C)cc2)cc1)NC(=O)OC(C)(C)C |
| 226 °C | O=C(NOC1CCCCO1)c1cnc(N2CCC(NS(=O)(=O)c3ccc4ccccc4c3)CC2)nc1 (stereo not drawn) |
| 187 to 189 °C | CN(C=C(C#N)C#N)c1ccc(O)cc1 |
| 125 to 127 °C | COc1ccc(NS(=O)(=O)c2cccc3c(N(C)C)cccc23)nn1 |

The remaining lines, values behind:

| SMILES | melting point |
| --- | --- |
| CN1CCN(c2cc3nc(C(C)(C)C)sc3cc2[N+](=O)[O-])CC1 | 132 to 135 °C |
| Cn1nc(-c2cccs2)n(C)c1=S | 128 to 129 °C |
| COc1cc(OCCOc2ccc(C(=O)C(=O)O)cc2)cc(OC)c1OC | 118 to 119 °C |
| CCN1c2ncccc2C(=O)N(C)c2ccc(-c3ccn(C)c3)nc21 | 187 to 188 °C |
| CCN(c1cc(Cl)c(Cl)cc1Cl)C(C(=O)O)c1ccccc1OC (stereo not drawn) | 92.7 °C |
| CC(=O)NC[C@H]1CN(c2ccc(N3CCC(C#N)(Nc4ccccc4)CC3)c(F)c2)C(=O)O1 | 81 to 85 °C |
| COC(=O)c1coc2cc(O)ccc12 | 200 to 201 °C |
| Cc1cc(=O)n(CCCN2CCC(c3c[nH]c4ccccc34)CC2)c2ccccc12 | 74 to 77 °C |
| Cc1c(C=CCN)[nH]c(=O)c2c1ccc1nc(Nc3c(Cl)cccc3Cl)n(C)c12 | > 300 °C |
| CC(C)(C)c1ccc2cc3cc(C(C)(C)C)ccc3cc2c1 | 249 to 253 °C |
| CCNc1cc(NS(=O)(=O)c2ccc(N)cc2)nc(NC(C)C)n1 | 266 to 267 °C |
| Cc1cccc(-c2cccc(OC3SCC(O)C(O)C3O)c2)n1 (stereo not drawn) | 143 °C |
| CNS(=O)(=O)c1cc(C(=O)NNC(=O)c2occ(-c3ccccc3)c2-c2ccccc2)ccc1O | 119 to 120 °C |
| C[C@H](O)CN1CCN(c2ccc(Nc3ncc4ccc(-c5ccccc5N(C)S(C)(=O)=O)n4n3)cc2F)CC1 | 165 °C |
| Cn1nc(-c2ccccc2SCc2ccccc2)oc1=O | 137 to 140 °C |
| CCNC(=O)OCCCCCCCCC1CC2=C(C1)C(=O)C(OC)=C(OC)C2=O | 85 to 86 °C |
| CC12CC(F)C3C4CCC(=O)C=C4C=CC3C1CCC2=O (stereo not drawn) | 198 °C |
| COc1ccc2c(c1)C(c1ccc(OCCN(C(C)C)C(C)C)cc1)c1c-2ccc2ccccc12 (stereo not drawn) | 106 to 115 °C |
| Cn1c(C(F)(F)F)cc(=O)n(-c2ccc(Cl)c3c2OC(C)(C)C3)c1=O | 152 to 153 °C |
| CCc1onc(-c2ccccc2)c1-c1ccccc1 | 85 to 87 °C |
| Nc1nc(C(=O)C(=O)O)cs1 | > 200 °C |
| O=S(=O)(Nc1cccc(OCc2csc(-c3ccccc3)n2)c1)C(F)(F)F | 113 to 115 °C |
| C#CC1(O)CCc2c(O)c3c(c(O)c2C1)C(=O)c1ccccc1C3=O (stereo not drawn) | 230 °C |
| Clc1ccc2c(c1)C(c1ccccc1)=NCCN2C1=NCCO1 | 125 to 126 °C |
| O=c1ncc(Cl)cn1COCc1cnsn1 | 106 °C |
| Cc1cc(-n2nc(C(F)F)cc2-c2ccc(S(C)(=O)=O)cc2)ccc1Br | 141 to 142 °C |
| CC1CCN(CCCCC(=O)c2ccc3c(c2)Cc2cc(C(=O)CCCCN4CCC(C)CC4)ccc2-3)CC1 | 143 to 144 °C |
| CCOC(=O)c1nnn(Cc2ccccc2)c1N | 153 °C |

| SMILES | melting point |
| --- | --- |
| CC(CC(=O)NCc1ccccc1)n1c(C(F)(F)F)nc2cc(F)c(-n3c(=O)cc(C(F)(F)F)n(C)c3=O)cc21 (stereo not drawn) | 191 to 193 °C |
| CCCCCCCCCCCCCCN=C=S | 77 to 79 °C |
| O=C(CCc1ccccc1)Nc1cc(C(=O)O)ccn1 | 266 to 267 °C |
| N[C@H](Cc1ccc2ccccc2c1)C(=O)O | 242 to 244 °C |
| CC(=O)COc1ccc([N+](=O)[O-])cc1 | 77 to 78 °C |
| CCOC(=O)/C=C/c1c(-c2ccccc2)c2cc(C)c(C)cc2c(=O)n1C | 143 to 145 °C |
| O=C(O)CC1(c2ccc(Cl)cc2)CNC(=O)C1 (stereo not drawn) | 190 to 191 °C |
| Cc1cc(S(=O)(=O)N(C)CC(O)(CO)c2cccc(Cl)n2)ccc1Cl (stereo not drawn) | 131 to 132 °C |
| O=C1CC(c2ccc(C3CCCCCC3)cc2)C(=O)O1 (stereo not drawn) | 102 to 104 °C |
| C[C@@H](n1cnn(-c2ccc(OC(F)(F)C(F)F)cc2)c1=O)[C@@]1(c2ccc(F)cc2F)CO1 | 105 to 106 °C |
| O=C1c2c(Cl)cccc2-n2cnc(-c3cnco3)c2[C@@H]2CCCN12 | 201 to 202 °C |
| CC1(C)CC(O)CC(C)(C)N1C#N | 96 to 98 °C |
| CC(C)(C)c1ccc(CN=C=S)cc1 | 44 to 47 °C |
| COc1ccc2c(c1)CN(C=O)N=C2Cc1c(Cl)cncc1Cl | 165 to 167 °C |
| C=C(C)C(=O)NC1=CC(C(=O)O)C(O)(C(C)=O)C=C1 (stereo not drawn) | 192 °C |
| CC12CCC(CC1=O)C(C)(C)O2 (stereo not drawn) | 40 to 48 °C |
| Oc1c(Br)cnc2ccccc12 | 286 to 287 °C |
| CCc1ccc2c(c1)C=Cc1cc(C)ccc1C2c1cn(-c2ccnc(N3CC(C(=O)O)C3)n2)c(=O)[nH]c1=O (stereo not drawn) | 244 °C |
| COC1CN(C(=O)c2cc(-c3cccc(Cl)c3)c(=O)[nH]c2-c2c(Cl)cccc2C#N)C1 | 239 to 243 °C |
| COC(=O)C1=Cc2cc(Br)ccc2N2CCCC2C1 (stereo not drawn) | 136 to 139 °C |
| CCCCOc1ccc(S(=O)(=O)C2(C(=O)NO)CCN(Cc3ccccn3)CC2)cc1 | 118 °C |
| Oc1cc2cc(-c3ccccc3)sc2c(Cl)c1Cl | 122 to 124 °C |
| Cn1c(=O)[nH]c2cc3[nH]c(-c4cccnc4)nc3cc21 | > 300 °C |
| CCCCCC1CCc2cc(C(=O)Oc3ccc(CCCC)cc3)ccc2C1 (stereo not drawn) | 48.1 °C |
| COc1c(N2CCCC(NC(C)=O)C2)c(F)cc2c(=O)c(C(=O)O)cn(C3CC3)c12 (stereo not drawn) | 176 to 177 °C |
| CCN1CCC(c2c[nH]c3ccc(NC(=N)c4cccs4)cc23)CC1 | 150 to 152 °C |
| CS(=O)(=O)c1ccc(Oc2ccc(C(=O)c3ccccc3)cc2)nc1 | 130 to 132 °C |
